Paper PMC9506414, “Novel 2,6,9-Trisubstituted Purines as Potent CDK Inhibitors Alleviating Trastuzumab-Resistance of HER2-Positive Breast Cancers” (Pharmaceuticals, 2022)

Tests used:
Experiment in all cases: Kinome-wide inhibition profiling
Assay type in all cases: biochemical
ACVRL1 = target: T1, ACVRL1 (Homo sapiens, UniProt P37023)
T1 construct: purchased Reaction Biology Corp
Description: (§1) In vitro CDK12/cyclinK assays for all compounds and in vitro kinome-wide inhibition profiling of 30d at 10 μM were performed by a CRO company (Reaction Biology Corp., San Diego, CA, USA).

BRSK1 = target: T2, BRSK1 (Homo sapiens, UniProt Q8TDC3)
T2 construct: purchased Reaction Biology Corp
Description: as §1

CAMK2d = target: T3, CAMK2d (Homo sapiens, UniProt Q13557)
T3 construct: purchased Reaction Biology Corp
T3 sequence (Q13557 whole entry): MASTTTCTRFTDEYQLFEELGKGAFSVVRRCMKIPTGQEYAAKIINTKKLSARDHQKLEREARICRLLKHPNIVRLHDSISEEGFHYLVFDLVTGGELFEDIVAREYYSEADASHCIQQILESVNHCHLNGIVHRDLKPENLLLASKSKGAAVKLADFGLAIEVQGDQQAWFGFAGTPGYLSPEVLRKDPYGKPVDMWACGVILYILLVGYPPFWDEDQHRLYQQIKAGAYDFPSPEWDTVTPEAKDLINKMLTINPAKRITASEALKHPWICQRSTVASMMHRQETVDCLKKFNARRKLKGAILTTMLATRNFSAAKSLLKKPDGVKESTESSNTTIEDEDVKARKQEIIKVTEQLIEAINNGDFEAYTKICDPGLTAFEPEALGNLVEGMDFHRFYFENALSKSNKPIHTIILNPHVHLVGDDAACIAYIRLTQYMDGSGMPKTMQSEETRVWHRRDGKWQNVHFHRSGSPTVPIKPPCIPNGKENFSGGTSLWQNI
Description: as §1

CAMKK1 = target: T4, CAMKK1 (Homo sapiens, UniProt Q8N5S9)
T4 construct: purchased Reaction Biology Corp
Description: as §1

CLK1 = target: T5, CLK1 (Homo sapiens, UniProt P49759)
T5 construct: purchased Reaction Biology Corp
T5 sequence (P49759 whole entry): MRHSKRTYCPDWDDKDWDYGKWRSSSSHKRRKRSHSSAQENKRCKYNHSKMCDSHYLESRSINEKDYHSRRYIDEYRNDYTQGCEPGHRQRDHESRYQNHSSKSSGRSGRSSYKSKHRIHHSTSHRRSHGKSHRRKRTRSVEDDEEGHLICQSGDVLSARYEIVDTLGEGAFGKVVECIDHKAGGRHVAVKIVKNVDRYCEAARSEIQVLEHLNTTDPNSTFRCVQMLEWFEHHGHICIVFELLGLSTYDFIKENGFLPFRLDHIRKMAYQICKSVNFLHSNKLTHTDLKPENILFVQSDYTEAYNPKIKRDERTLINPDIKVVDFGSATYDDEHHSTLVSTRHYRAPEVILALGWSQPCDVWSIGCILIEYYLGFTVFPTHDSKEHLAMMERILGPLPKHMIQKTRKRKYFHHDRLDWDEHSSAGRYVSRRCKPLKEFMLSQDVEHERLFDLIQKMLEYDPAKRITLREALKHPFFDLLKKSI
Description: as §1

CSNK1A1L = target: T6, CSNK1A1L (Homo sapiens, UniProt Q8N752)
T6 construct: purchased Reaction Biology Corp
Description: as §1

CSNK1E = target: T7, CSNK1E (Homo sapiens, UniProt P49674)
T7 construct: purchased Reaction Biology Corp
T7 sequence (P49674 whole entry): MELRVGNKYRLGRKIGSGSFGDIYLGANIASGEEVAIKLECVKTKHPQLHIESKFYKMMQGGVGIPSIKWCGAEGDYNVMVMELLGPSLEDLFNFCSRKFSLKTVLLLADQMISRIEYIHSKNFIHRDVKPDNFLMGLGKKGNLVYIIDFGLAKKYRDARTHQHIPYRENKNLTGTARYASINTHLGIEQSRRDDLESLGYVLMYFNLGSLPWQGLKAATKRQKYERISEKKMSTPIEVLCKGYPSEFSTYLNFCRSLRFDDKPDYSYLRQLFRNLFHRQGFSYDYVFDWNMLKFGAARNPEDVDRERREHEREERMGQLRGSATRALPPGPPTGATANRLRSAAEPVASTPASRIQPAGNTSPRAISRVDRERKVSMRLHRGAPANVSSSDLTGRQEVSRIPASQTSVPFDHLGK
Description: as §1

CTK = target: T8, CTK (Homo sapiens, UniProt P42679)
T8 construct: purchased Reaction Biology Corp
Description: as §1

DYRK1B = target: T9, DYRK1B (Homo sapiens, UniProt Q9Y463)
T9 construct: purchased Reaction Biology Corp
T9 sequence (Q9Y463 whole entry): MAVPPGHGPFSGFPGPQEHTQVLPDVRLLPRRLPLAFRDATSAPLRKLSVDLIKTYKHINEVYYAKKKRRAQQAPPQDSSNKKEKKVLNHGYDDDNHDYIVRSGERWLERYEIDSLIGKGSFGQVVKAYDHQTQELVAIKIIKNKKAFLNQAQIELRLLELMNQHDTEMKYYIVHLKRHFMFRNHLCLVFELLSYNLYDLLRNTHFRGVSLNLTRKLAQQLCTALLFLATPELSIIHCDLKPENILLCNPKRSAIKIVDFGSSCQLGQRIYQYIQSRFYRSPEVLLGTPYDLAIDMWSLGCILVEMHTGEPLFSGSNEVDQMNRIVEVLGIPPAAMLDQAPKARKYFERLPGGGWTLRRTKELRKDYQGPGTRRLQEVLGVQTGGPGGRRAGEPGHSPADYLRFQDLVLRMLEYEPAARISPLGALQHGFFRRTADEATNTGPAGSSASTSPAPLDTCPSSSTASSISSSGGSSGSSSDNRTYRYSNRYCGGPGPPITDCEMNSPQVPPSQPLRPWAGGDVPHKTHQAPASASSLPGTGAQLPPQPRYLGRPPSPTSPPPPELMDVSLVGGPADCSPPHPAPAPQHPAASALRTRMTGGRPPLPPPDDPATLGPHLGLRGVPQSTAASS
Description: as §1

DYRK3 = target: T10, DYRK3 (Homo sapiens, UniProt O43781)
T10 construct: purchased Reaction Biology Corp
Description: as §1

EPHA6 = target: T11, EPHA6 (Homo sapiens, UniProt Q9UF33)
T11 construct: purchased Reaction Biology Corp
T11 sequence (Q9UF33 23-1036): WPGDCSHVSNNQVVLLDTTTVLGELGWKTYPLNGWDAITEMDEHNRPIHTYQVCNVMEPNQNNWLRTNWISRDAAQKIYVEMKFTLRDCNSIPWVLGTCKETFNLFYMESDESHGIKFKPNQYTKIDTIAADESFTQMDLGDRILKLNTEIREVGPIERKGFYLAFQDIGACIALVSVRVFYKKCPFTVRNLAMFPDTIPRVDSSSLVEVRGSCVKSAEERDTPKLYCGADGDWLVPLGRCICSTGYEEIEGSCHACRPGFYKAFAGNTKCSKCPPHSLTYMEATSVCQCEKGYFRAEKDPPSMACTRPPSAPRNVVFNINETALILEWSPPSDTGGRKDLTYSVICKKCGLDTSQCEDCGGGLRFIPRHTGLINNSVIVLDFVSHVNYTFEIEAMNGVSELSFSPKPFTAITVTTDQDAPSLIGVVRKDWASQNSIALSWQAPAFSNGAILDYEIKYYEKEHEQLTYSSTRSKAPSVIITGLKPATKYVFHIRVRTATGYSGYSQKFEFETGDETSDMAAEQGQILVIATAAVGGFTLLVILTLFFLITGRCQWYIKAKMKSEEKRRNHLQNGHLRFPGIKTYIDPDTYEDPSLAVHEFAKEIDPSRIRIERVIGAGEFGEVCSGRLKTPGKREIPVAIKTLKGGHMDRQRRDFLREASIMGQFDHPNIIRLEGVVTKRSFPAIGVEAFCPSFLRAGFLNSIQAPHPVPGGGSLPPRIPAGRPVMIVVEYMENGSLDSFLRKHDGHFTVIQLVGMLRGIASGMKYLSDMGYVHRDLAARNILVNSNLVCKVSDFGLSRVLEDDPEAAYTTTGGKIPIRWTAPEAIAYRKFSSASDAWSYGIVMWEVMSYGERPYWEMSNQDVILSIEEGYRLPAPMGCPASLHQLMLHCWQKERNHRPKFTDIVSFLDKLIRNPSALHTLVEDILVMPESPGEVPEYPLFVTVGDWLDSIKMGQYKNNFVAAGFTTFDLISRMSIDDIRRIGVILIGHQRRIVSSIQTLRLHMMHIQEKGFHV
Description: as §1

EPHB2 = target: T12, EPHB2 (Homo sapiens, UniProt P29323)
T12 construct: purchased Reaction Biology Corp
T12 sequence (P29323 19-1055): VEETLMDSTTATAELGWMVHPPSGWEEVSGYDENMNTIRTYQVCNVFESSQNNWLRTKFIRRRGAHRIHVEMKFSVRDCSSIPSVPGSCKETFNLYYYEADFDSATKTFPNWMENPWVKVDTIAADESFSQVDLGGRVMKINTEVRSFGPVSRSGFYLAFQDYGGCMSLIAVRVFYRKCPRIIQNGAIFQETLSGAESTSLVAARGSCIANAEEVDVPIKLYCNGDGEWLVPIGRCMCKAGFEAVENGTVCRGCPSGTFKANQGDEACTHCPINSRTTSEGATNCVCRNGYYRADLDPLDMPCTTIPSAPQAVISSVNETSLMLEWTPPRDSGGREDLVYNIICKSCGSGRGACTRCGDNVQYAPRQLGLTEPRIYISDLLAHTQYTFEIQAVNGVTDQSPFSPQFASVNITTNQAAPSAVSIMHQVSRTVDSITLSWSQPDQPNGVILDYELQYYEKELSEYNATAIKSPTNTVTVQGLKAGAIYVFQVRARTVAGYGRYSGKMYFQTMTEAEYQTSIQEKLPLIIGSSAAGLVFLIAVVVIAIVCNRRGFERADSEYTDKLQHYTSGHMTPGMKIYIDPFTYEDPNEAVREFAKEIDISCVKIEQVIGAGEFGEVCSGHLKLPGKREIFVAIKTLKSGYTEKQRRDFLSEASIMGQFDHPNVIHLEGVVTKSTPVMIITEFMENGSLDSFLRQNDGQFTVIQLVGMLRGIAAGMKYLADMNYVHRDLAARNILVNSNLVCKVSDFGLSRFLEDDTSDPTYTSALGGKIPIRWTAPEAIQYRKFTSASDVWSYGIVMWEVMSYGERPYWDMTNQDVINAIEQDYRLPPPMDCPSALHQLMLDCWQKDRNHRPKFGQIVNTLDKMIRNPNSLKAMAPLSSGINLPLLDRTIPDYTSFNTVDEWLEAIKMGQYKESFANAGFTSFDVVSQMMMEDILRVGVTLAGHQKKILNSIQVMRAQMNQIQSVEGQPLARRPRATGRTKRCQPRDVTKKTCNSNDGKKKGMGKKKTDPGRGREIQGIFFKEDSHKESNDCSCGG
Description: as §1

EPHB3 = target: T13, EPHB3 (Homo sapiens, UniProt P54753)
T13 construct: purchased Reaction Biology Corp
Description: as §1

ERN1 = target: T14, ERN1 (Homo sapiens, UniProt O75460)
T14 construct: purchased Reaction Biology Corp
Description: as §1

GRK1 = target: T15, GRK1 (Homo sapiens, UniProt Q15835)
T15 construct: purchased Reaction Biology Corp
Description: as §1

GRK5 = target: T16, GRK5 (Homo sapiens, UniProt P34947)
T16 construct: purchased Reaction Biology Corp
Description: as §1

GRK7 = target: T17, GRK7 (Homo sapiens, UniProt Q8WTQ7)
T17 construct: purchased Reaction Biology Corp
Description: as §1

GSK3a = target: T18, GSK3a (Homo sapiens, UniProt P49840)
T18 construct: purchased Reaction Biology Corp
Description: as §1

KSR1 = target: T19, KSR1 (Homo sapiens, UniProt Q8IVT5)
T19 construct: purchased Reaction Biology Corp
Description: as §1

Kit = target: T20, Kit (Homo sapiens, UniProt P10721)
T20 construct: purchased Reaction Biology Corp
Description: as §1

MAP3K2 = target: T21, MAP3K2 (Homo sapiens, UniProt Q9Y2U5)
T21 construct: purchased Reaction Biology Corp
T21 sequence (Q9Y2U5 whole entry): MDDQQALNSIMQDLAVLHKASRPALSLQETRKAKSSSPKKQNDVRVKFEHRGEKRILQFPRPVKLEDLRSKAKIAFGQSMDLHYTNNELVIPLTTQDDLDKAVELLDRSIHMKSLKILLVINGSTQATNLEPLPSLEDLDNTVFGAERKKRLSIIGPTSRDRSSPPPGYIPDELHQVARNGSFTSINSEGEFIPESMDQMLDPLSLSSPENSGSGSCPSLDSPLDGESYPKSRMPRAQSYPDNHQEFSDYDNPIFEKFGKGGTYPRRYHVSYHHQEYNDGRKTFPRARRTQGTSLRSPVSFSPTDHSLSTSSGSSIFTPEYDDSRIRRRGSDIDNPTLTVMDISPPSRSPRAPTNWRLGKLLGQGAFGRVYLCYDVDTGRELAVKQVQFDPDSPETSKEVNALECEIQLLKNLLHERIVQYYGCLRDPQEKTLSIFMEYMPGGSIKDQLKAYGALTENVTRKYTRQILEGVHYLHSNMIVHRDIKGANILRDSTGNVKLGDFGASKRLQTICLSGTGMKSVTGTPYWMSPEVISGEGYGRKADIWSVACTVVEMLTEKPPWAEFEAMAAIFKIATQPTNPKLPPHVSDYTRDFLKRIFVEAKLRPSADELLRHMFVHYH
Description: as §1

MAP3K3 = target: T22, MAP3K3 (Homo sapiens, UniProt Q99759)
T22 construct: purchased Reaction Biology Corp
Description: as §1

MARK2 = target: T23, MARK2 (Homo sapiens, UniProt Q7KZI7)
T23 construct: purchased Reaction Biology Corp
Description: as §1

MEK5 = target: T24, MEK5 (Homo sapiens, UniProt Q13163)
T24 construct: purchased Reaction Biology Corp
Description: as §1

NDR2 = target: T25, NDR2 (Homo sapiens, UniProt Q9Y2H1)
T25 construct: purchased Reaction Biology Corp
Description: as §1

P38-beta = target: T26, P38-beta (Homo sapiens, UniProt Q15759)
T26 construct: purchased Reaction Biology Corp
Description: as §1

PIM1 = target: T27, PIM1 (Homo sapiens, UniProt P11309)
T27 construct: purchased Reaction Biology Corp
Description: as §1

PRKCD = target: T28, PRKCD (Homo sapiens, UniProt Q05655)
T28 construct: purchased Reaction Biology Corp
Description: as §1

PRKG1b = target: T29, PRKG1b (Homo sapiens, UniProt Q13976)
T29 construct: purchased Reaction Biology Corp
Description: as §1

PRKG2 = target: T30, PRKG2 (Homo sapiens, UniProt Q13237)
T30 construct: purchased Reaction Biology Corp
Description: as §1

ROCK1 = target: T31, ROCK1 (Homo sapiens, UniProt Q13464)
T31 construct: purchased Reaction Biology Corp
Description: as §1

ROS1 = target: T32, ROS1 (Homo sapiens, UniProt P08922)
T32 construct: purchased Reaction Biology Corp
Description: as §1

SGK1 = target: T33, SGK1 (Homo sapiens, UniProt O00141)
T33 construct: purchased Reaction Biology Corp
Description: as §1

STK16 = target: T34, STK16 (Homo sapiens, UniProt O75716)
T34 construct: purchased Reaction Biology Corp
Description: as §1

TAOK2 = target: T35, TAOK2 (Homo sapiens, UniProt Q9UL54)
T35 construct: purchased Reaction Biology Corp
Description: as §1

TGFBR1 = target: T36, TGFBR1 (Homo sapiens, UniProt P36897)
T36 construct: purchased Reaction Biology Corp
Description: as §1

TLK1 = target: T37, TLK1 (Homo sapiens, UniProt Q9UKI8)
T37 construct: purchased Reaction Biology Corp
Description: as §1

TRKB = target: T38, TRKB (Homo sapiens, UniProt Q16620)
T38 construct: purchased Reaction Biology Corp
Description: as §1

TSSK2 = target: T39, TSSK2 (Homo sapiens, UniProt Q96PF2)
T39 construct: purchased Reaction Biology Corp
Description: as §1

TSSK6 = target: T40, TSSK6 (Homo sapiens, UniProt Q9BXA6)
T40 construct: purchased Reaction Biology Corp
T40 sequence (Q9BXA6 whole entry): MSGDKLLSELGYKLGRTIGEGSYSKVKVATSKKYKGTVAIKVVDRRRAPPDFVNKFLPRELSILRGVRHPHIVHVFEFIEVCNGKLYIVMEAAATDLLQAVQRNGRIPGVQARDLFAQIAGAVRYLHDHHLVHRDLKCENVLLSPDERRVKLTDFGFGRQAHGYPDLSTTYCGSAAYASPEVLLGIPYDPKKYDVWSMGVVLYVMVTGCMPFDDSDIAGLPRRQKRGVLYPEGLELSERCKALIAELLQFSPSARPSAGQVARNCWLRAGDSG
Description: as §1

TTBK2 = target: T41, TTBK2 (Homo sapiens, UniProt Q6IQ55)
T41 construct: purchased Reaction Biology Corp
Description: as §1

ZAP70 = target: T42, ZAP70 (Homo sapiens, UniProt P43403)
T42 construct: purchased Reaction Biology Corp
Description: as §1

p70S6Kb/RPS6KB2 = target: T43, p70S6Kb/RPS6KB2 (Homo sapiens, UniProt Q9UBS0)
T43 construct: purchased Reaction Biology Corp
Description: as §1

Work on CCn1cnc2c(NCc3ccc(-c4ccccn4)nc3)nc(-c3ccc(N)nc3)nc21 [Compound 30d, N-([2,2′-Bipyridin]-5-ylmethyl)-2-(6-aminopyridin-3-yl)-9-ethyl-9H-purin-6-amine] yielded a remaining activity at 10 µM (ACVRL1) of 105%, a remaining activity at 10 µM (BRSK1) of 92.8% and a remaining activity at 10 µM (CAMK2d) of 61.7%. The remaining activity at 10 µM (CAMKK1) was 18.7%, the remaining activity at 10 µM (CLK1) was 13.7% and the remaining activity at 10 µM (CSNK1A1L) was 53.1%. The remaining activity at 10 µM (CSNK1E) was 22.9%, the remaining activity at 10 µM (CTK) was 87.6% and the inhibition at 10 µM (DYRK1B) was over 95%. For the same compound, the remaining activity at 10 µM (DYRK1B) was 3.2%, the remaining activity at 10 µM (DYRK3) was 58.6% and the inhibition at 10 µM (EPHA6) was over 95%. For the same compound, the remaining activity at 10 µM (EPHA6) was 3%, the inhibition at 10 µM (EPHB2) was over 95% and the remaining activity at 10 µM (EPHB2) was 2.5%. It also gave a remaining activity at 10 µM (EPHB3) of 66%, a remaining activity at 10 µM (ERN1) of 50.8% and a remaining activity at 10 µM (GRK1) of 76.3%. For the same compound, the remaining activity at 10 µM (GRK5) was 91.5%, the remaining activity at 10 µM (GRK7) was 49.7% and the remaining activity at 10 µM (GSK3a) was 10.6%. The remaining activity at 10 µM (KSR1) was 100%, the remaining activity at 10 µM (Kit) was 14.2% and the remaining activity at 10 µM (MAP3K2) was 90%. It also gave a remaining activity at 10 µM (MAP3K3) of 94%, a remaining activity at 10 µM (MARK2) of 74.3% and a remaining activity at 10 µM (MEK5) of 84.1%. For the same compound, the remaining activity at 10 µM (NDR2) was 36.9%, the remaining activity at 10 µM (P38-beta) was 64.7% and the remaining activity at 10 µM (PIM1) was 97.8%. The remaining activity at 10 µM (PRKCD) was 95.2%, the remaining activity at 10 µM (PRKG1b) was 97.6% and the remaining activity at 10 µM (PRKG2) was 99.5%. It also gave a remaining activity at 10 µM (ROCK1) of 97.2%, a remaining activity at 10 µM (ROS1) of 27.8% and a remaining activity at 10 µM (SGK1) of 84.9%. It also gave a remaining activity at 10 µM (STK16) of 35.9%, a remaining activity at 10 µM (TAOK2) of 23.8% and a remaining activity at 10 µM (TGFBR1) of 112%. The remaining activity at 10 µM (TLK1) was 67.8%, the remaining activity at 10 µM (TRKB) was 16.5% and the remaining activity at 10 µM (TSSK2) was 85.3%. The remaining activity at 10 µM (TSSK6) was 86.9%, the remaining activity at 10 µM (TTBK2) was 97.3% and the remaining activity at 10 µM (ZAP70) was 100%. It also gave a remaining activity at 10 µM (p70S6Kb/RPS6KB2) of 92.2%.
